Series [1] addresses Rho-associated protein kinase 1 (Homo sapiens, UniProt Q13464). Put plainly: Inhibition of human recombinant ROCK1 kinase expressed in insect Sf9 cells by SPA.
The target in the next series is Cytochrome P450 2D6 (Homo sapiens, UniProt P10635). In words: Inhibition of CYP2D6. The format is ADME.
The subject of a further series is Aorta. Put plainly: Inhibition of phenylephrine-induced aortic ring contraction in Sprague-Dawley rat. The format is functional, tissue-based.
Series [2] in a line: Clearance in Sprague-Dawley rat at 1.8 mg/kg, iv. The settings on record: in vivo. The arrangement: dose 1.8 mg/kg, route intravenous. The format is ADME, organism-based.
Series [3] can be described thus: Volume of distribution at steady state in Sprague-Dawley rat at 1.8 mg/kg, iv. The format is ADME, organism-based. Further details: dose 1.8 mg/kg, route intravenous. Particulars: in vivo, read-out: Vdss.
The target in the next series is Cytochrome P450 3A4 (Homo sapiens, UniProt P08684). In words: Inhibition of CYP3A4. The format is ADME.
Chain of Cytochrome P450 3A4 (P08684 whole entry): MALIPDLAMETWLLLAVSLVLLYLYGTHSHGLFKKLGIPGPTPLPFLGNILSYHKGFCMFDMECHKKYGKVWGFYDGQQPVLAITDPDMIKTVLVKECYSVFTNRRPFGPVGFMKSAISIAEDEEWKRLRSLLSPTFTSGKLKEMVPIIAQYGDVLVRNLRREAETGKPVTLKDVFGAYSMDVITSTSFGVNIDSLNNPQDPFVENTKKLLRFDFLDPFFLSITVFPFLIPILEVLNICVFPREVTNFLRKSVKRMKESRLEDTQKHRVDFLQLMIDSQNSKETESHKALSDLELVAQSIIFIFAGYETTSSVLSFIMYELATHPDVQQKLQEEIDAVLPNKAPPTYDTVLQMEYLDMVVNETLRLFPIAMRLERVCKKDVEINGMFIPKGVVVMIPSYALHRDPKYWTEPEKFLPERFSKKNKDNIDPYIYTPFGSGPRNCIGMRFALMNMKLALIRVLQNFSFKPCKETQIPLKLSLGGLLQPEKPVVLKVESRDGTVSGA
Series [4] deals with Ribosomal protein S6 kinase alpha-1 (Homo sapiens, UniProt Q15418). In words: Inhibition of RSK1.
Chain of Ribosomal protein S6 kinase alpha-1 (Q15418 whole entry): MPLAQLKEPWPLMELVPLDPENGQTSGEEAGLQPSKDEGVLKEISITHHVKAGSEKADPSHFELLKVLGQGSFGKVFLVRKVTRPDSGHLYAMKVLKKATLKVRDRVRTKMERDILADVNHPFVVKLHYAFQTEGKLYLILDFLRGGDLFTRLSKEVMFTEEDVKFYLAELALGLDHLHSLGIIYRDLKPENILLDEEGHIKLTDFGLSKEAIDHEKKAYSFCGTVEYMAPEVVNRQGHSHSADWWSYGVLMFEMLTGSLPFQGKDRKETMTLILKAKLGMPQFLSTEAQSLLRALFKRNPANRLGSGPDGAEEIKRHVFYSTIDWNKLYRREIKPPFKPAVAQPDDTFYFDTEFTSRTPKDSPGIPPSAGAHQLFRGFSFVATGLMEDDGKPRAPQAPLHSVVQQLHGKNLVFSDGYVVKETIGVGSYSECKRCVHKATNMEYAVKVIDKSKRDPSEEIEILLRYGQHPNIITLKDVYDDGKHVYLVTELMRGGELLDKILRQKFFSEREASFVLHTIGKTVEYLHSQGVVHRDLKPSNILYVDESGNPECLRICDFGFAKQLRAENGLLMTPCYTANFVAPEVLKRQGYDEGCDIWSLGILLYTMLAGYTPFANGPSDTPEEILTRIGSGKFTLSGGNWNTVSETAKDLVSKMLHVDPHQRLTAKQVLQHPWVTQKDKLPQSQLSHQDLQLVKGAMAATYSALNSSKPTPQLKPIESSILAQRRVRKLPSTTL
The nature of series [5]: Oral bioavailability in Sprague-Dawley rat at 1.8 mg/kg. The format is ADME, organism-based. The settings on record: in vivo.
Series [6] is described as follows: Half life in Sprague-Dawley rat at 1.8 mg/kg, iv. The arrangement: dose 1.8 mg/kg, route intravenous. The settings on record: in vivo. The format is ADME, organism-based.
For another series, the target named is Cytochrome P450 2C9 (Homo sapiens, UniProt P11712). In words: Inhibition of CYP2C9. The format is ADME.
Chain of Cytochrome P450 2C9 (P11712 whole entry): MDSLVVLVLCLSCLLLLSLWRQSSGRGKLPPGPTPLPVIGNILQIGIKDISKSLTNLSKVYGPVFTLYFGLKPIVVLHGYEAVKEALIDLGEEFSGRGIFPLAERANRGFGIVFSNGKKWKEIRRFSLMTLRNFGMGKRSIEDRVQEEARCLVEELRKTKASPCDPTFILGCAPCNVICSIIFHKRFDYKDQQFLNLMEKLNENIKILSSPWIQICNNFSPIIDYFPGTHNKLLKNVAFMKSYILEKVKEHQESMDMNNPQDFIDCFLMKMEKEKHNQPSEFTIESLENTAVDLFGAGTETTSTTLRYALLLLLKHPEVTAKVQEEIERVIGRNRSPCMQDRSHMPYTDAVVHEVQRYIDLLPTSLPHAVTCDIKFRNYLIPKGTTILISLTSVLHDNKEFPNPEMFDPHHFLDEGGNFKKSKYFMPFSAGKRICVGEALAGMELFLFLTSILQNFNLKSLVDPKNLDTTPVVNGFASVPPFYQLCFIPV
The target in series [7] is Ribosomal protein S6 kinase beta-1 (Homo sapiens, UniProt P23443). In words: Inhibition of p70S6K.
Chain of Ribosomal protein S6 kinase beta-1 (P23443 whole entry): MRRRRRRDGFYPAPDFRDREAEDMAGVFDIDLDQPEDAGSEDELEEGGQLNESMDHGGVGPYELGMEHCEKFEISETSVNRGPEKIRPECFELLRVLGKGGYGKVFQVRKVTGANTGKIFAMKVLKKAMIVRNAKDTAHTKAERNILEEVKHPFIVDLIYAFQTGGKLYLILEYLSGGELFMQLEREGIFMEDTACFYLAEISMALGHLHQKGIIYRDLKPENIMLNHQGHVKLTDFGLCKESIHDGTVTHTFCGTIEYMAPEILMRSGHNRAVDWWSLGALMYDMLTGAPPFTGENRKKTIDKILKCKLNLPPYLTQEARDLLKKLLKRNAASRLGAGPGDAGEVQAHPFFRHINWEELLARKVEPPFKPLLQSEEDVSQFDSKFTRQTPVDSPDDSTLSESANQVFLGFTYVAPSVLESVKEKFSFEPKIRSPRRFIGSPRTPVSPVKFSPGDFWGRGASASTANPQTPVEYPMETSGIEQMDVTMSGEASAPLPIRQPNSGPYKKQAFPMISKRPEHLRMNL
Series [8] relates to Rattus norvegicus. Put plainly: (§1) Half life in Sprague-Dawley rat at 1.1 mg/kg, iv. The format is ADME, organism-based. Further details: dose 1.1 mg/kg, route intravenous. Particulars: in vivo.
Series [9] in a line: Oral bioavailability in Sprague-Dawley rat at 1.1 mg/kg. The format is ADME, organism-based. Particulars: in vivo.
Series [10] deals with Rattus norvegicus. In words: (§2) Volume of distribution at steady state in Sprague-Dawley rat at 1.1 mg/kg, iv. Further details: dose 1.1 mg/kg, route intravenous. The settings on record: in vivo. The format is ADME, organism-based.
Series [11] can be described thus: Half life in monkey. The format is ADME, organism-based, Macaca mulatta. The settings on record: rhesus monkey, in vivo.
Series [12] is described as follows: Oral bioavailability in monkey. The format is ADME, organism-based, Macaca mulatta. Particulars: rhesus monkey, in vivo.
In series [13] the test system is Rattus norvegicus. In words: Decrease in mean arterial pressure in conscious spontaneous hypertensive rat model at 30 mg/kg, po.
Series [14] can be described thus: Oral bioavailability in Sprague-Dawley rat at 1.2 mg/kg. The format is ADME, organism-based. The settings on record: in vivo.
A short description of series [15]: Volume of distribution at steady state in Sprague-Dawley rat at 1.2 mg/kg, iv. The format is ADME, organism-based. Further details: dose 1.2 mg/kg, route intravenous. The settings on record: in vivo, read-out: Vdss.
Series [16] in a line: Half life in Sprague-Dawley rat at 1.2 mg/kg, iv. The format is ADME, organism-based. The arrangement: dose 1.2 mg/kg, route intravenous. Particulars: in vivo.
The nature of series [17]: Clearance in Sprague-Dawley rat at 1.2 mg/kg, iv. The format is ADME, organism-based. Further details: dose 1.2 mg/kg, route intravenous. The settings on record: in vivo.
Series [18] is described as follows: Clearance in Sprague-Dawley rat at 1.3 mg/kg, iv. The format is ADME, organism-based. The arrangement: dose 1.3 mg/kg, route intravenous. Particulars: in vivo.
Series [19] is described as follows: Half life in Sprague-Dawley rat at 1.3 mg/kg, iv. The format is ADME, organism-based. Further details: dose 1.3 mg/kg, route intravenous. Particulars: in vivo.
Series [20] is described as follows: Volume of distribution at steady state in Sprague-Dawley rat at 1.3 mg/kg, iv. The format is ADME, organism-based. The settings on record: in vivo, read-out: Vdss. The arrangement: dose 1.3 mg/kg, route intravenous.
Series [21] is described as follows: as §1. The format is ADME, organism-based. The arrangement: dose 1.1 mg/kg, route intravenous. Particulars: Sprague-Dawley, in vivo.
Series [22] can be described thus: as §2. The format is ADME, organism-based. The arrangement: dose 1.1 mg/kg, route intravenous. The settings on record: Sprague-Dawley, in vivo, read-out: Vdss.
Series [23] can be described thus: Clearance in Sprague-Dawley rat at 1.1 mg/kg, iv. The format is ADME, organism-based. Further details: dose 1.1 mg/kg, route intravenous. The settings on record: in vivo.

Consider 25 compounds from ChEMBL document CHEMBL1142520, “Potent, selective and orally bioavailable dihydropyrimidine inhibitors of Rho kinase (ROCK1) as potential therapeutic agents for cardiovascular diseases” (J Med Chem, 2008).

Structures are written as SMILES.

Chain of Rho-associated protein kinase 1 (Q13464 whole entry): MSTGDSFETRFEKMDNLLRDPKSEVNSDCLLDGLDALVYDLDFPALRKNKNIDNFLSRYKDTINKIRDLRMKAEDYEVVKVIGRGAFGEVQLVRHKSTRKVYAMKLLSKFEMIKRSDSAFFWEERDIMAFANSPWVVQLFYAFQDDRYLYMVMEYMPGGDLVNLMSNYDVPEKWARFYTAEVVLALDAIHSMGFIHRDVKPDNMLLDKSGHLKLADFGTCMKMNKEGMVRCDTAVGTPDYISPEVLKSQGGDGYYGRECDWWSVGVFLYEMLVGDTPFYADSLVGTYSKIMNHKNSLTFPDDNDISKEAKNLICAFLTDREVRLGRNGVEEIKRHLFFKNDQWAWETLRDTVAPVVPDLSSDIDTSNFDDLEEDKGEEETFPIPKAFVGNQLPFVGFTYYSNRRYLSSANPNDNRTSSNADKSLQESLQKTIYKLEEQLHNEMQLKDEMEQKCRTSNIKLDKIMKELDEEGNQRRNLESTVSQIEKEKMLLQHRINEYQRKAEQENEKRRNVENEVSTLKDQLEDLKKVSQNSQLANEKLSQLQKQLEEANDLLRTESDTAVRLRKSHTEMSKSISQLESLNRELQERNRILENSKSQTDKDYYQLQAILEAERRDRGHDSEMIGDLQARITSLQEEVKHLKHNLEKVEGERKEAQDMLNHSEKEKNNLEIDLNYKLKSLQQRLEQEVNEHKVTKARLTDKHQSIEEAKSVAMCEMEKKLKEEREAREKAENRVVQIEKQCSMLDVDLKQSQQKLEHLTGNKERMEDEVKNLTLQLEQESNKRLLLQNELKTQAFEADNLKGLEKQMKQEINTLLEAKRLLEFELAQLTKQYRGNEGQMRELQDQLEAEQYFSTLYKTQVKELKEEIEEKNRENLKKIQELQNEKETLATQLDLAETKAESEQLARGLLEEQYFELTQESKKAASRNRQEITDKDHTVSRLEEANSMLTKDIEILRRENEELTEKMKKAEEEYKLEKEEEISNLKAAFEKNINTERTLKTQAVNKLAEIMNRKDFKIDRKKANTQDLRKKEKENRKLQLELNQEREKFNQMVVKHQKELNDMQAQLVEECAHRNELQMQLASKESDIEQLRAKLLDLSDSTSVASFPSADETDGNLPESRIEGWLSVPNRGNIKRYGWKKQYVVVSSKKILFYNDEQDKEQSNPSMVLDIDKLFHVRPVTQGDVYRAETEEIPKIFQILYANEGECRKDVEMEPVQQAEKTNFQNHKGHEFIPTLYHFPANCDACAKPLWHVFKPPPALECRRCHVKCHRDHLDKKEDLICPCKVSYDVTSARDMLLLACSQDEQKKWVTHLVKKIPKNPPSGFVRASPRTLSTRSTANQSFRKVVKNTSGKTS
Chain of Cytochrome P450 2D6 (P10635 whole entry): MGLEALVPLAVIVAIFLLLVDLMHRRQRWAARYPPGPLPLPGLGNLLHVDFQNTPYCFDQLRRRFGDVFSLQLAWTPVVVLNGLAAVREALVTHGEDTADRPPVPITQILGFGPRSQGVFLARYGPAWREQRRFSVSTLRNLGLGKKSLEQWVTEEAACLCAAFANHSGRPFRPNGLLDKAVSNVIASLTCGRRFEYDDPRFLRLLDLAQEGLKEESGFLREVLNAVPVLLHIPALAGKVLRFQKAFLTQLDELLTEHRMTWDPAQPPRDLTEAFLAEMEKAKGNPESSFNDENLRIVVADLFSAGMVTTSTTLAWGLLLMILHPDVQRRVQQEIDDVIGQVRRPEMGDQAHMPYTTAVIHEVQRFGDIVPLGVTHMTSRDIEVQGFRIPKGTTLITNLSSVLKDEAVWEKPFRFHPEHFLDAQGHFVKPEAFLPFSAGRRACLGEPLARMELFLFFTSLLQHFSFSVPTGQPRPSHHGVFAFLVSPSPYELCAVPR

The term IC50 denotes the point on the concentration scale where inhibition reaches its midpoint. Consider `COc1ccc(C2=NC(c3ccc(S(N)(=O)=O)cc3)C(C(=O)Nc3ccc4[nH]ncc4c3)=C(C)N2)cc1` (configuration not stated), for which, in [1], the IC50 amounted to 68 nM.
The term clearance denotes a measure of how efficiently the substance is removed, as volume per time. As a reminder, the bioavailability is dose-corrected exposure relative to a reference, in per cent. As usually defined, the half-life is the time needed for the level to fall by half in the phase considered. Regarding `CC1=C(C(=O)Nc2ccc3[nH]ncc3c2)C(c2ccc(F)cc2)N=C(c2ccccc2)N1` (configuration not stated), the IC50 at Cytochrome P450 2D6 was determined as 90 nM; in the series with Aorta, 1300 nM; at Cytochrome P450 3A4, 350 nM; in [4], 5300 nM; in series [1], 105 nM; against Cytochrome P450 2C9, 640 nM. In series [7], this compound gave an IC50 of 4500 nM. Moreover, the clearance in [2] amounted to 15 mL/min/kg. In series [3], the Vd amounted to 0.8 L/kg. In addition, the bioavailability in [5] was determined as 16%. Further, the half-life in series [6] is 1 h.
Turning to `CC1=C(C(=O)Nc2ccc3[nH]ncc3c2)C(c2ccc(F)cc2)N=C(c2ccc(C(F)(F)F)nc2)N1` (configuration not stated) [GSK-317354A], the IC50 in [1] was 75 nM.
Consider `CC1=C(C(=O)Nc2ccc3[nH]ncc3c2)C(c2ccc(F)cc2)N=C(c2cccc(C(F)(F)F)c2)N1` (configuration not stated), for which the IC50 in [1] worked out at 288 nM.
As to `CC1=C(C(=O)Nc2cc3cn[nH]c3cc2F)C(c2ccc(Cl)cc2F)N=C(c2ccnc(C)c2)N1` (configuration not stated), the half-maximal inhibitory concentration (IC50) in series [1] worked out at 10 nM.
For orientation: Vdss means the apparent volume that relates the amount in the body to the concentration in plasma or blood. Consider `CC1=C(C(=O)Nc2ccc3[nH]ncc3c2)C(c2ccc(Cl)cc2F)N=C(c2ccnc(Cl)c2)N1` (configuration not stated), for which the IC50 at Cytochrome P450 2D6 is 5700 nM; against Cytochrome P450 3A4, 5500 nM; in [1] it was 4 nM. In the series with Rattus norvegicus [8], this compound returned a t1/2 of 1.03 h. In [9], the bioavailability is 7%. In the series with Rattus norvegicus [10], this compound registered a Vdss of 1.6 L/kg.
With `CC1=C(C(=O)Nc2ccc3[nH]ncc3c2)C(c2ccc(F)cc2)N=C(c2ccc(Cl)cc2)N1` (configuration not stated), the IC50 in series [1] turned out to be 129 nM.
Take `CC1=C(C(=O)Nc2ccc3[nH]ncc3c2)C(c2ccc(F)cc2)N=C(c2ccccn2)N1` (configuration not stated): the IC50 in [1] came out at 180 nM.
Turning to `CC1=C(C(=O)Nc2ccc3[nH]ncc3c2)C(c2ccc(F)cc2)N=C(c2ccc(C)cc2)N1` (configuration not stated), in series [1], the IC50 was 101 nM.
Turning to `CC1=C(C(=O)Nc2cc3cn[nH]c3cc2F)C(c2ccc(Cl)cc2F)N=C(c2ccnc(Cl)c2)N1` (configuration not stated), the IC50 against Cytochrome P450 2D6 worked out at 5200 nM; in the series on Aorta, 256 nM; in [4] it was 398 nM; in series [1] it was 6 nM; against Cytochrome P450 2C9, 2500 nM; in series [7], 1000 nM. Moreover, in the series on Rattus norvegicus [8], the t1/2 was 1.75 h. Further, the half-life in [11] is 2.2 h. Further, the bioavailability in series [12] was found to be 19%; in [9], 49%. For the same compound, the volume of distribution (Vdss) in the series on Rattus norvegicus [10] turned out to be 2 L/kg. Further, the Activity in the series on Rattus norvegicus [13] turned out to be 25 mmHg.
Regarding `CC1=C(C(=O)Nc2ccc3[nH]ncc3c2)C(c2ccc(F)cc2)N=C(c2ccc(C)c(F)c2)N1` (configuration not stated), the IC50 in series [1] is 104 nM.
Same read-out and setting: to `COc1ccc(C2=NC(C)C(C(=O)Nc3ccc4[nH]ncc4c3)=C(C)N2)cc1` (configuration not stated) belongs 863 nM; to `CCOc1cc(C2=NC(c3ccc(Cl)cc3F)C(C(=O)Nc3cc4cn[nH]c4cc3F)=C(C)N2)ccn1` (configuration not stated), 11 nM.
Compound `COc1ccc(C2=NC(c3ccc(F)cc3)C(C(=O)Nc3ccc4[nH]ncc4c3)=C(C)N2)cc1` (configuration not stated) returned a bioavailability in series [14] of 35%. Also, in series [15], the Vd was found to be 5.1 L/kg. The half-life in [16] is 2.82 h. For the same compound, the clearance in series [17] amounted to 55 mL/min/kg. Also, in series [1], the IC50 was determined as 46 nM.
Consider `CC1=C(C(=O)Nc2ccc3[nH]nc(C)c3c2)C(c2ccc(Cl)cc2F)N=C(c2ccnc(Cl)c2)N1` (configuration not stated), for which, in series [1], the IC50 came out at 15 nM.
With `COc1cc(C2=NC(c3ccc(Cl)cc3F)C(C(=O)Nc3cc4cn[nH]c4cc3F)=C(C)N2)ccn1` (configuration not stated), the IC50 worked out at 2100 nM against Cytochrome P450 2D6, 5300 nM against Cytochrome P450 3A4, 6 nM in series [1] and 8400 nM against Cytochrome P450 2C9. This compound also yielded a t1/2 with Rattus norvegicus [8] of 0.767 h. In addition, the bioavailability in series [9] worked out at 53%. This compound also came in with a Vdss with Rattus norvegicus [10] of 2.5 L/kg.
With `CC1=C(C(=O)Nc2ccc3[nH]ncc3c2)C(c2ccc(F)cc2)NC(=O)N1` (configuration not stated) [GSK-180736A], the half-maximal inhibitory concentration (IC50) in the series with Aorta amounted to 760 nM. The compound also gave a clearance in [18] of 49 mL/min/kg. In addition, in series [19], the half-life was 0.7 h. Also, in [20], the Vd amounted to 2.2 L/kg.
Turning to `COc1ccc(C2=NC(c3ccc(Cl)cc3F)C(C(=O)Nc3ccc4[nH]ncc4c3)=C(C)N2)cn1` (configuration not stated), the IC50 against Cytochrome P450 2D6 is 1200 nM; on Cytochrome P450 3A4, 2500 nM; in [1] it was 3 nM. In addition, the bioavailability in [9] stood at 27%.
Regarding `CC1=C(C(=O)Nc2ccc3[nH]ncc3c2)C(c2ccc(F)cc2)N=C(c2cnccn2)N1` (configuration not stated), in series [1], the IC50 came out at 105 nM.
On to `COc1ccc(C2=NC(c3ccc(Cl)cc3F)C(C(=O)Nc3ccc4[nH]ncc4c3)=C(C)N2)cc1` (configuration not stated), for which the IC50 against Cytochrome P450 2D6 worked out at 200 nM; in the series on Aorta, 200 nM; on Cytochrome P450 3A4, 2700 nM; in series [4], 510 nM; in series [1], 5 nM; in series [7], 2100 nM. The half-life in series [21] was found to be 1.13 h. Besides, in series [9], the bioavailability amounted to 58%. Also, the Vd in series [22] turned out to be 6.46 L/kg. For the same compound, the clearance in series [23] was 108 mL/min/kg.
`COc1cc(C2=NC(c3ccc(Cl)cc3F)C(C(=O)Nc3ccc4[nH]ncc4c3)=C(C)N2)ccn1` (configuration not stated): the IC50 at Cytochrome P450 2D6 came to 3700 nM; at Cytochrome P450 3A4, 4300 nM; in [1], 2 nM. Besides, the t1/2 with Rattus norvegicus [8] amounted to 0.567 h. This compound also yielded a bioavailability in series [9] of 21%. Also, the Vdss with Rattus norvegicus [10] was 2 L/kg.
For the compound `COc1ccc(C2=NC(c3ccc(C(F)(F)F)cc3F)C(C(=O)Nc3ccc4[nH]ncc4c3)=C(C)N2)cc1` (configuration not stated), the IC50 in series [1] came out at 26 nM.
In series [14], `CC1=C(C(=O)Nc2ccc3[nH]ncc3c2)C(c2ccc(F)cc2)N=C(c2ccncc2)N1` (configuration not stated) registered a bioavailability of 0%. For the same compound, the IC50 in series [1] stood at 8 nM.
Regarding `CC1=C(C(=O)Nc2ccc3[nH]ncc3c2)C(c2ccc(F)cc2)N=C(c2cccc(C)c2)N1` (configuration not stated), the IC50 in series [1] was 129 nM.
Regarding `COc1ccc(C2=NC(c3ccc(S(C)(=O)=O)cc3)C(C(=O)Nc3ccc4[nH]ncc4c3)=C(C)N2)cc1` (configuration not stated), the IC50 in series [1] is 150 nM.
